Paper PMC11279551, “Pharmacokinetics and Enterohepatic Circulation of 2-(Quinoline-8-carboxamido)benzoic Acid (2-QBA) in Mice” (Pharmaceutics, 2024)

Key:
Plasma protein binding = assay type: in vitro ADME; conditions: n = 6, read-out: plasma protein binding rate (converted)
[1] = Effect of activated charcoal (AC) on the pharmacokinetics of 2-QBA; assay type: in vivo; conditions: mice; for AUC(0-t): read-out: AUC24h
Method: To elucidate the reabsorption mechanism of 2-QBA, a pharmacokinetic study of 2-QBA was conducted with activated charcoal (AC) administered PO. Male ICR mice (7 weeks old, 25–30 g) were fasted for 14–16 h prior to the administration of 2-QBA.
In total, […] were administered 2-QBA (1 mg/kg/3 mL) via the tail vein. Two hours after the 2-QBA dosing, AC (0.8 g/kg/5 mL in distilled water) or a vehicle (5 mL/kg distilled water) was administrated via oral gavage. Each group included ten mice who were randomly divided into two groups for sparse sampling. Blood collection was performed at 0.083, 0.5, 2, and 8 h from 5 mice and at 0.25, 1, 4, and 24 h from another 5 mice, as described previously. Four mice treated with either AC (0.8 g/kg) or the vehicle 2 h after the 2-QBA IV dosing (1 mg/kg) were returned to a metabolic cage to collect the urine and feces samples. The urine and feces samples were collected for 72 h.
Next, 2-QBA was administered PO (2 mg/kg/5 mL) with or without AC (0.8 g/kg in 3 mL of DW), which was administered via oral gavage 2 h after the 2-QBA dosing. Each group included eight mice who were randomly divided into two groups for sparse sampling. Blood collection was performed at 0.25, 0.75, 2, and 8 h from 4 mice and at 0.5, 1, 4, and 24 h from another 4 mice, as described previously. Four mice treated with either AC (0.8 g/kg) or vehicle 2 h after the 2-QBA PO dosing (2 mg/kg) were returned to a metabolic cage to collect the urine and feces samples. The urine and feces samples were collected for 72 h.
Aliquots of plasma samples (30 μL) were added to 120 μL of IS solution. The mixture was vigorously vortexed for 5 min and then centrifuged at 13,000× g for 5 min. The supernatant was transferred to autosampler vials. Subsequently, a 3 μL aliquot was injected into the LC-MS/MS system. Aliquots (30 μL) of urine and 10% feces homogenate samples were added to 60 μL of 150 mM sodium acetate buffer (pH 5.0) in the presence or absence of β-glucuronidase (900 unit) at 37 °C for 2 h. The reaction was quenched by adding four volumes of ice-cold IS solution. The mixture was vigorously vortexed for 5 min, followed by centrifugation at 13,000× g for 5 min. The supernatant was transferred to autosampler vials and subsequently a 3 μL aliquot was injected into the LC-MS/MS system.
(§1) WinNonlin 5.1 software (Pharsight Co., Mountain View, CA, USA) was used to calculate the pharmacokinetic parameters. AUClast and AUCinf indicate the areas under the plasma concentration curve from 0 h to the last sample and from 0 h to infinity, respectively; these were estimated using the linear trapezoidal method. T1/2 is the elimination half-life, which is estimated from the elimination coefficient (k) (i.e., 0.693/k), and MRT is the mean residence time. CL is the total clearance, which is calculated by dividing the dose by AUCinf. Vdss is the volume of the distribution at a steady state, calculated from MRTxCL. CLrenal and CLfeces are calculated by dividing the amount excreted in urine and feces by the AUCinf, respectively. CLmetabolism is calculated by subtracting CLrenal and CLfeces from CL. Cmax and Tmax are the maximum plasma concentration and time to reach Cmax, respectively. BA is calculated by dividing the dose-normalized AUCinf for PO administration (AUCinf/PO dose) by the dose-normalized AUCinf for IV administration (AUCinf/IV dose). All data are expressed as the mean ± standard deviation (SD).

[2] = Pharmacokinetics after PO administration in mice; assay type: in vivo; conditions: for BA: vs IV AUCinf at 1 mg/kg; for AUC(0-t): read-out: AUC24h; for Cmax: read-out: Cmax,1; for Tmax: po
Method: Male ICR mice (7 weeks old, […]; Samtako, Osan, Korea) were acclimated to the animal facility at Kyungpook National University for one week with free access to animal chow and water. In the per oral administration (PO) groups, the mice were fasted for 14–16 h prior to the administration of 2-QBA.
After the PO administration of 2-QBA (2 mg/kg in 5 mL of saline containing 10% DMSO) using an oral gavage for 10 mice, blood samples were collected at 0.25, 0.75, 2, and 8 h from 5 mice and at 0.5, 1, 4, and 24 h from another 5 mice. Ten mice in each group were administered 5 mg/kg or 15 mg/kg of 2-QBA using an oral gavage and blood was drawn using the same protocol described above. All blood samples were centrifuged at 13,000× g for 1 min and the supernatant plasma (30 μL) was stored at −80 °C until the analysis of the 2-QBA. For the analysis of 2-QBA in the plasma samples, 120 μL of IS solution (berberine 1 ng/mL in acetonitrile) was added to plasma samples (30 μL). The mixture was vigorously vortexed for 5 min and then centrifuged at 13,000× g for 5 min. The supernatant was transferred to autosampler vials. Subsequently, a 3 μL aliquot was injected into the LC-MS/MS system.
as §1

[3] = male, ICR, mouse, plasma, iv, 1 mg/kg, IV 1 mg/kg, AC (0.8 g/kg)
[4] = male, ICR, mouse, plasma, iv, 1 mg/kg, IV 1 mg/kg, Control
[5] = male, ICR, mouse, plasma, po, 2 mg/kg, PO 2 mg/kg, AC (0.8 g/kg)
[6] = male, ICR, mouse, plasma, po, 2 mg/kg, PO 2 mg/kg, Control
[7] = male, ICR, mouse, plasma, PO 2 mg/kg
[8] = male, ICR, mouse, plasma, PO 5 mg/kg
[9] = male, ICR, mouse, plasma, PO 15 mg/kg

O=C(O)c1ccccc1NC(=O)c1cccc2cccnc12 [2-QBA, 2-(quinoline-8-carboxamido)benzoic acid]
fraction unbound (Plasma protein binding): 0.128
AUC(0-t) ([1]; male, ICR, mouse, plasma, intravenous, 1 mg/kg, IV 1 mg/kg, AC (0.8 g/kg) PO 2 h after dosing): 1180 ± 264 ng·h/mL
AUC(0-inf) [1, 3]: 1210 ± 293 ng·h/mL
MRT [1, 3]: 2.48 ± 2.56 h
clearance [1, 3]: 14.5 ± 3.95 mL/min/kg
half-life [1, 3]: 3.18 ± 2.52 h
AUC(0-inf) [1, 4]: 1330 ± 422 ng·h/mL
MRT [1, 4]: 2.88 ± 1.14 h
clearance [1, 4]: 13.9 ± 5.41 mL/min/kg
half-life [1, 4]: 3.88 ± 1.72 h
AUC(0-t) ([1]; male, ICR, mouse, plasma, iv, 1 mg/kg, IV 1 mg/kg, Control (vehicle 2 h after dosing)): 1270 ± 361 ng·h/mL
AUC(0-inf) [1, 5]: 836 ± 209 ng·h/mL
MRT [1, 5]: 7 ± 2.48 h
half-life [1, 5]: 5.5 ± 2.24 h
Cmax ([1]; male, ICR, mouse, plasma, po, 2 mg/kg, PO 2 mg/kg, AC (0.8 g/kg) 2 h after dosing): 315 ± 106 ng/mL
AUC(0-t) [1, 5]: 650 ± 305 ng·h/mL
AUC(0-inf) [1, 6]: 2110 ± 608 ng·h/mL
Cmax [1, 6]: 399 ± 90.7 ng/mL
MRT [1, 6]: 8.49 ± 3.08 h
half-life [1, 6]: 6.05 ± 2.04 h
AUC(0-t) [1, 6]: 1930 ± 453 ng·h/mL
Tmax ([1]; male, ICR, mouse, plasma, PO 2 mg/kg, Control): 0.25 h
BA ([1]; PO 2 mg/kg, AC (0.8 g/kg)): 34.5%
BA ([1]; PO 2 mg/kg, Control): 79.8%
mean absorption time (MRTPO–MRTIV) [2]: 8.02 h
AUC24h/dose ([2]; PO 2 mg/kg): 684.2 ± 340.3 ng·h/mL/mg/kg
AUCinf/dose ([2]; PO 2 mg/kg): 712.7 ± 348.0 ng·h/mL/mg/kg
BA ([2]; PO 2 mg/kg): 68.3%
AUC24h/dose ([2]; PO 5 mg/kg): 702.9 ± 169.2 ng·h/mL/mg/kg
AUCinf/dose ([2]; PO 5 mg/kg): 873.7 ± 186.9 ng·h/mL/mg/kg
BA ([2]; PO 5 mg/kg): 83.7%
AUC24h/dose ([2]; PO 15 mg/kg): 705.5 ± 182.3 ng·h/mL/mg/kg
AUCinf/dose ([2]; PO 15 mg/kg): 734.7 ± 176.3 ng·h/mL/mg/kg
BA ([2]; PO 15 mg/kg): 70.4%
AUC(0-inf) [2, 7]: 1430 ± 696 ng·h/mL
MRT [2, 7]: 12 ± 4.91 h
half-life [2, 7]: 7.82 ± 1.76 h
AUC(0-t) [2, 7]: 1370 ± 680 ng·h/mL
Cmax [2, 7]: 283 ± 174 ng/mL
AUC(0-inf) [2, 8]: 4370 ± 934 ng·h/mL
MRT [2, 8]: 13.7 ± 3.14 h
half-life [2, 8]: 9.91 ± 1.92 h
AUC(0-t) [2, 8]: 3510 ± 846 ng·h/mL
Cmax [2, 8]: 752 ± 319 ng/mL
AUC(0-inf) [2, 9]: 11000 ng·h/mL
MRT [2, 9]: 7.04 ± 0.76 h
half-life [2, 9]: 5.58 ± 1.24 h
AUC(0-t) [2, 9]: 10600 ng·h/mL
Cmax [2, 9]: 2460 ± 696 ng/mL
bioavailability ([2]; male, ICR, mouse, plasma, PO 2.0, 5.0 and 15 mg/kg, read-out: absolute oral bioavailability (BA) range): 68.3 to 83.7%
Tmax ([2]; male, ICR, mouse, plasma, 2 mg/kg, PO 2 mg/kg, read-out: Tmax,1): 0.2 ± 0.11 h
Tmax ([2]; male, ICR, mouse, plasma, 2 mg/kg, PO 2 mg/kg, read-out: Tmax,2): ~5.6 h
Tmax ([2]; male, ICR, mouse, plasma, 5 mg/kg, PO 5 mg/kg, read-out: Tmax,1): 0.25 h
Tmax ([2]; male, ICR, mouse, plasma, 15 mg/kg, PO 15 mg/kg, read-out: Tmax,1): 0.3 ± 0.11 h
Tmax ([2]; male, ICR, mouse, plasma, PO 2-15 mg/kg, read-out: Tmax,1 (range over doses)): 0.2 to 0.3 h
Tmax ([2]; male, ICR, mouse, plasma, PO 2-15 mg/kg, read-out: Tmax,2 (range over doses)): 3.5 to 5.6 h
